In patent publication US20250360130A1, “METHODS OF TREATING INDOLENT SYSTEMIC MASTOCYTOSIS” (Telios Pharma Inc., priority 2024, published 2025):

Key:
[1] = tested on: subjects with AdvSM and ISM; conditions: cited from earlier work
mast cells = assay: Phosphorylation and degranulation of antigen-stimulated mast cells grown with chronic SCF (FIG. 21); format: cell-based; conditions: 1 μM, antigen 15 minutes
Description: Histamine release, CD63 expression, CD203c expression, pBTK (Y223) levels, pP38 (T180/Y182) levels, pPLCg1 (S1248) levels, pERK (T202/Y204) levels, and pS6 (S235/236) levels are shown. Mast cells were grown with continuous (chronic) exposure to SCF and then stimulated with antigen (Ag) for 15 minutes, leading to phosphorylation of multiple kinases, including pBTK, […], pP38, pERK, and pS6 ribosome. This stimulation increases degranulation markers, including CD63, CD203c, and histamine release.

ISM patients = conditions: cited from earlier work
basophils = assay: Comparison of BTK inhibitors by BAT (CD63, CD203c); format: cell-based, human; conditions: concentration of 1 μM, 2 hours, blood from a healthy donor
Description: The BAT assay using the Flow Cast Basophil Activation Kit (Buhlmann Diagnostics; Catalog #B-CCR-STCON) was then conducted following manufacturer instructions by (1) stimulating the blood with anti-FcεR stimulation control in stimulation buffer with IL-3 and staining cells for CCR3 and CD63 for 15 minutes at 37° C., (2) lysing red blood cells and fixing cells with Lysing Reagent at room temperature for 10 minutes, (3) washing cells with Wash Buffer, and (4) acquiring data on a flow cytometer. Activated basophils were defined as CCR3+, low side scatter and CD63+. Percent of activated basophils was calculated as number of activated basophils over the total number of basophils. A four-parameter logistic regression was applied to determine the EC50 and EC90.
Blood samples were gently rocked at room temperature for 2 hours. […] Activated basophils were also defined as CCR3+, low side scatter and CD203c+.

humans = conditions: cited from earlier work

## Cc1nc(Nc2ncc(C(=O)Nc3c(C)cccc3Cl)s2)cc(N2CCN(CCO)CC2)n1 [dasatinib]
[1]; 15 subjects with AdvSM and 18 subjects with ISM, overall
  subjects who discontinued treatment due to toxicity: 34%
[1]; overall study population
  pleural effusion, grade 3 adverse event, patients overall: 10%

## Cn1cc(-c2cc3c(N4CCN(c5ncc([C@@](C)(N)c6ccc(F)cc6)cn5)CC4)ncnn3c2)cn1 [avapritinib]
Mast cells
  activation (phosphorylation and degranulation) of mast cells: only partially inhibits activation
ISM patients; 25 mg QD, week 24, ISM patients
  reduction of total symptom score compared to the placebo: 5.7 points
ISM patients; 25 mg QD
  ISM patients with dose interruptions due to adverse reactions: 5%
ISM patients; ISM patients, first 6 months of treatment
  treated subjects who failed to achieve a mean symptom score reduction of 30%: approximately half
ISM patients; ISM patients, within the first 6 months of treatment
  subjects who achieved a 50% symptom score reduction: about a third

## CC#CC(=O)N1CCC[C@H]1c1nc(-c2ccc(C(=O)Nc3ccccn3)cc2)c2c(N)nccn12 [acalabrutinib, Acalabrutinib ((S)-4-(8-amino-3-(1-(but-2-ynoyl)pyrrolidin-2-yl)imidazo[1,5-a]pyrazin-1-yl)-N-(pyridin-2-yl)benzamide), reference compound]
basophils
  basophil activation (CD63+, CD203c+): no effect on basophil activation

## C=CC(=O)N1CCC[C@@H](n2nc(-c3ccc(Oc4ccccc4)cc3)c3c(N)ncnc32)C1 [ibrutinib, Ibrutinib (1-[(3R)-3-[4-amino-3-(4-phenoxyphenyl)pyrazolo[3,4-d]pyrimidin-1-yl]piperidin-1-yl]prop-2-en-1-one)]
humans
  adverse events associated with administration: heightened risk of atrial fibrillation, hypertension, major bleeding events, and cytopenias
